Test results from patent US11896602B2, “Method for preventing pregnancy” (ESTETRA SRL, priority 2016, dated 2024).

Key:
[1] = tested on: healthy female subjects; experiment: Example 1 clinical study, one 28-day cycle: dysmenorrhea as treatment-emergent adverse event; format: in vivo, human
Protocol: During that study, healthy female subjects were treated for one 28-day cycle with either 10 or 20 mg E4 alone (n=10 and 11, respectively) or with a combination of E4 with either Progesterone (P) or Desogestrel (DSG) (n=15 or 16, respectively).
At baseline, occasional dysmenorrhea was reported by 11 subjects (21.2%), and frequent dysmenorrhea was reported by 19 subjects (36.5%). Overall, dysmenorrhea was reported by 25% to 53.3% of the subjects included in this trial.
As shown in Table 3 of Treatment-emergent adverse events (TE-AE) below, reporting of dysmenorrhea during the treatment phase was low in comparison to the incidence recorded at baseline.

[2] = Terminal half-life; settings: in vivo
[3] = Triglycerides levels on daily estrogen use; format: in vivo, human; settings: even at higher dosages
Text: Besides, the daily use of currently marketed estrogens (ethinylestradiol (EE), E2, E2V, conjugated equine estrogens) is associated with a dose-proportional increase in triglycerides levels. In the human body, high levels of triglycerides in the bloodstream have been linked to atherosclerosis and, by extension, the risk of heart disease and stroke.

[4] = 10 mg E4, n = 10, one 28-day cycle
[5] = 20 mg E4 alone (n = 11), with DSG (n = 15) or with P4 (n = 16), one 28-day cycle

**Q.** For `C[C@]12CC[C@@H]3c4ccc(O)cc4CC[C@H]3[C@@H]1[C@@H](O)[C@@H](O)[C@@H]2O` [E4, estetrol], which “Dysmenorrhea TE-AE, % of subjects” value [1, 4] is on record?
**A.** The value was 10.0%.

**Q.** And the “Dysmenorrhea TE-AE, number of subjects” value [1, 4]?
**A.** The value was 1.

**Q.** What about the “Dysmenorrhea TE-AE, % of subjects” value [1, 5] of the same compound?
**A.** The value was 9.1%.

**Q.** What about the “Dysmenorrhea TE-AE, number of subjects” value [1, 5] of the same compound?
**A.** Its value is 1.

**Q.** What about the terminal half-life [2] of the same compound?
**A.** Its terminal half-life is 31.7 h.

**Q.** What about the triglycerides levels [3] of the same compound?
**A.** Its triglycerides levels is “minimally increases triglycerides levels”.
